# Patent US6541463B1, “Inhibitors of type 5 and type 3 17β-hydroxysteroid dehydrogenase and methods for their use” (Endorecherche, Inc., priority 1998, dated 2003)
# Key:
# [1] = tested on: Shionogi mouse mammary carcinoma cells; test: Androgenic activity: stimulation of proliferation of Shionogi cells; format: cell-based
# Protocol: In column 9, the androgenic activity of preferred type 5 inhibitors expressed as the percentage of stimulation of proliferation of Shionogi cells at concentrations of 10^−7 M (left number) and 10^−6 M (right number) of inhibitor. The manner in which the stimulation is determined is described in “Other Tests; B-Androgenic/Antiandrogenic Activity”. Lower numbers are desirable. ND means that a determination was not done.
# Androgenic/antiandrogenic activity of some preferred compounds has been measured using the Shionogi mouse mammary carcinoma cells.
# Minimal essential culture medium (MEM), non-essential amino acids, and fetal calf serum were purchased from Flow Laboratories. In order to remove endogenous steroids, serum was incubated overnight at 4° C. with 1% activated charcoal (Norit A, Fisher) and 0.1% Dextran T-70 (Pharmacia). A 2-h supplementary adsorption was performed at 25° C. in order to further remove protein-bound steroids. Serum was also inactivated by a 20-min incubation at 56° C.
# 5α-dihydrotestosterone (DHT) was obtained from Steraloids. The antiandrogen hydroxyflutamide (OH-FLU) was kindly supplied by Drs. T. L. Nagabuschan and R. Neri (Schering Corporation, Kenilworth, U.S.A.).
# Shionogi male mice bearing androgen-sensitive mammary tumors were obtained from Drs. Keishi Matsumoto, Osaka, Japan, and Yvonne Lefebvre, Ottawa, Canada. For primary culture, tumors were excised and washed in ice-cold sterile 25 mM Hepes buffer (137 mM NaCl; 5 mM KCl; 0.7 mM Na2HPO4; 10 mM glucose, pH 7.2). After mincing with scissors, the tumor minces were digested for 2 h at 37° C. in Hepes buffer containing 3.8 mg/ml collagenase (Clostridium, Boehringer), 1.5 mg/ml hyaluronidase II (Sigma), and 3% bovine serum albumin fraction V (Schwartz-Mann). Dispersed cells were collected by centrifugation (500×g for 10 min), washed twice by suspension in minimal essential medium (MEM) containing 5% dextran-coated charcoal-treated fetal calf serum (DCC-FCS), 1% non-essential amino acids, 10 IU/ml penicillin, 50 μg/ml streptomycin, and 100 nM dihydrotestosterone (DHT) (Steraloids).
# Cells were plated in the same medium at a density of 75 000 cells/ml in 75 cm^2 flasks under an atmosphere of 5% carbon dioxide in air at 37° C. The medium was changed weekly. The steroids and antisteroids were dissolved in ethanol and kept in stock solutions chosen to yield final ethanol concentrations less than 0.01% in the culture medium.
# Cells were subcultured at near-confidence by gentle digestion in a solution of 0.1% pancreatin (Flow Laboratories) in Hepes buffer containing 3 mM ethylenediaminetetraacetic acid (EDTA) (pH 7.2). Cells were pelleted by centrifugation, resuspended in culture medium, counted in a Coulter counter, and replated as described above. Soft agar cloning was performed as described (Stanley et al., Cell 10: 35-44, 1977) in the presence of 100 nM DHT.
# Cells were plated in 24-well plates at a density of 20 000 cells/well. The indicated increasing concentrations of agents were added to triplicate dishes, and cells were grown for 10-12 days with changes of medium every 3-4 days. Cell number was measured by direct counting in a Coulter counter.
# ED50 values of action of DHT and glucocorticoids were calculated according to a least-square regression as described (Rodbard, Endocrinology 94: 1427-1431, 1974). Statistical significance was calculated according to a multiple-range test (Kramer, Biometrics 12: 307-310,1956).
# estrogen receptor = target: T1, estrogen receptor (Rattus norvegicus, UniProt P06211); test: Estrogen receptor (ER) assay: inhibition of [3H]E2 binding, uterine cytosol
# T1 construct: from tissue; host or cells: uterine cytosol of gonadectomized female Sprague-Dawley rats
# T1 sequence (P06211 1-600): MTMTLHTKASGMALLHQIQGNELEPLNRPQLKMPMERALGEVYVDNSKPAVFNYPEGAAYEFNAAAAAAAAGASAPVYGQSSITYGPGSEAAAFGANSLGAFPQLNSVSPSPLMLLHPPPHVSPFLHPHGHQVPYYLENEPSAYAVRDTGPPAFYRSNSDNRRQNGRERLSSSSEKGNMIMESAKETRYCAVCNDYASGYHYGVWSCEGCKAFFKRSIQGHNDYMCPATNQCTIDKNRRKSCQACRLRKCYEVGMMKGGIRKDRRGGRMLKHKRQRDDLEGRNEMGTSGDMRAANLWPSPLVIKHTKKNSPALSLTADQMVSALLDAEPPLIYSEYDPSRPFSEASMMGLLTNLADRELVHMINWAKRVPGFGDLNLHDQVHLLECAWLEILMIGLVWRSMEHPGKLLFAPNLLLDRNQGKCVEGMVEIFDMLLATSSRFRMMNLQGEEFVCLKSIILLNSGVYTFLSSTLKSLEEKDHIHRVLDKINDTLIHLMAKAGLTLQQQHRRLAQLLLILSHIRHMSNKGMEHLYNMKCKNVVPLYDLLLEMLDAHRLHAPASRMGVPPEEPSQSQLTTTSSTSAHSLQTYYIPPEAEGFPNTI
# Protocol: Female Sprague-Dawley rats (Crl: CD(SD)Br) weighing 200-300 g were obtained from Charles-River Inc. (St-Constant, Québec, Canada). The rats were gonadectomized under general anesthesia (Isoflurane) and killed by cervical dislocation 24 hours later. The uteri were rapidly removed, dissected free from adhering tissue and frozen on dry-ice. Uteri were kept at −80° C. until assay. All subsequent steps were performed at 0-4° C. Uteri were homogenized in 10 vol (wt/vol) of buffer A (25 mM Tris-HCI, 1.5 mM EDTA disodium salt, 10 mM α-monothioglycerol, 10% glycerol, and 10 mM sodium molybdate, pH 7.4), using a Polytron PT-10 homogenizer (Brinkman Instruments, Canada) at a setting of 5 for three periods of 10 sec, with intervals of 10 sec for cooling. The homogenate was then centrifuged at 105,000×g for 60 min in a Beckman L5-65 ultracentrifuge (Fullerton, Calif.). The protein concentration of the cytosol fraction was measured according to the method of Bradford (Anal. Biochem. 72: 248-254, 1976), using bovine serum albumin as standard.
# Estrogen binding was measured using the dextran-coated charcoal adsorption technique as described previously (Asselin et al., Endocrinology, 101: 666-671, 1977; Asselin and Labrie, J. Steroid Biochem., 9: 1079-1082, 1978). Briefly, [^3H]E2 solubilized in ethanol were diluted into buffer A. Aliquots of uterine cytosol preparation (0.1 ml) were incubated with 5 nM [^3H]E2 (˜200,000 cpm, 0.1 ml) in the presence or absence of the indicated concentrations of unlabeled compounds (0.1 ml, prepared in buffer A containing 10% ethanol) for 3 h at room temperature. Unbound steroids were then separated by incubation for 15 min at 0-4° C. with 0.3 ml 0.5% Norit-A and 0.05% Dextran T-70 in buffer B (1.5 mM EDTA disodium salt, 10 mM monothioglycerol, and 10 mM Tris-HCI, pH 7.4) and centrifuged at 3,000×g for 15 min. Aliquots of the supernatant (0.3 ml) were removed for radioactivity measurement.
Compound,"Androgenic Activity Shionogi, Basal E^−6 ([1]; Table 4′, E^−6)","Androgenic Activity Shionogi, Basal E^−7 ([1]; Table 4′, E^−7)",other results
CC12C=CC(=O)C=C1C=CC1C2CCC2(C)C(=O)C3(CCCCC3)CC12 (stereo not drawn) [CS-204],,,"Androgenic Activity Shionogi, Basal E^−6 ([1]; E^−6): −17; Androgenic Activity Shionogi, Basal E^−7 ([1]; E^−7): 0; % Inhibition Estrogen Receptor E^−6 (estrogen receptor; E^−6): 0%; % Inhibition Estrogen Receptor E^−8 (estrogen receptor; E^−8): 0%"
CC1(C)CCC2(CCC3C4CCc5ccccc5C4CCC32C)OC1=O (stereo not drawn) [CS-224],0%,17%,"% Inhibition Estrogen Receptor E^−6 (estrogen receptor; Table 4′, E^−6): 2%; % Inhibition Estrogen Receptor E^−8 (estrogen receptor; Table 4′, E^−8): 0%"
CC(=O)O[C@]1(C)C(=O)CCC2C3C=C(C)C4=CC(=O)C=C[C@]4(C)C3CC[C@@]21C (stereo partly drawn) [CS-237],,,"Androgenic Activity Shionogi, Basal E^−6 ([1]; E^−6): −29; Androgenic Activity Shionogi, Basal E^−7 ([1]; E^−7): −22; % Inhibition Estrogen Receptor E^−6 (estrogen receptor; E^−6): 0%; % Inhibition Estrogen Receptor E^−8 (estrogen receptor; E^−8): 0%"
"CSCCOc1ccc2c(c1)CCC1C2CCC2(C)C1CCC21CCCC(=O)O1 [CS-242, 3-Methylthioethyloxy-1,3,5(10)-estratrien-17(R)-spiro-2′-(6′-oxo) Tetrahydropyran]",−32%,0%,"% Inhibition Estrogen Receptor E^−6 (estrogen receptor; Table 4′, E^−6): 0%; % Inhibition Estrogen Receptor E^−8 (estrogen receptor; Table 4′, E^−8): 0%"
CCC(=O)O[C@]1(C(C)=O)CCC2C3C=C(C)C4=CC(=O)C[C@H](C)[C@]4(C)C3CC[C@@]21C (stereo partly drawn) [CS-243],,,"Androgenic Activity Shionogi, Basal ([1]; E^−6): −23; Androgenic Activity Shionogi, Basal ([1]; E^−7): −13; % Inhibition Estrogen Receptor (estrogen receptor; E^−6): 0%; % Inhibition Estrogen Receptor (estrogen receptor; E^−8): 1%"
CCCC(=O)OC1(C(C)=O)CCC2C3C=C(C)C4=CC(=O)CC(C)C4(C)C3CCC21C (stereo not drawn) [CS-245],,,"Androgenic Activity Shionogi, Basal ([1]; E^−6): −34; Androgenic Activity Shionogi, Basal ([1]; E^−7): −28; % Inhibition Estrogen Receptor (estrogen receptor; E^−6): 2%; % Inhibition Estrogen Receptor (estrogen receptor; E^−8): 0%"
"C[C@]12CCC3c4ccc(O)cc4CCC3C1CC[C@@]21CCCC(=O)O1 (stereo partly drawn) [EM-919, 1,3,5(10)-estratrien-3-ol-17(R)-spiro-2′(6′-oxo)tetrahydropyran]",−17%,+73%,"% Inhibition Estrogen Receptor *E^−5 (estrogen receptor; Table 4′, starred values, E^−5): 90* %; % Inhibition Estrogen Receptor *E^−7 (estrogen receptor; Table 4′, starred values, E^−7): 07* %"
CC1=C[C@@H]2[C@H](CC[C@]3(C)C(=O)C4(CCCCC4)C[C@@H]23)[C@@]2(C)CCC(=O)C=C12 [EM-925],,,"Androgenic Activity Shionogi, Basal E^−6 ([1]; E^−6): −4; Androgenic Activity Shionogi, Basal E^−7 ([1]; E^−7): 11"
"COC(=O)CCCC(=O)O[C@]1(C(C)=O)CC[C@H]2[C@@H]3C=C(C)C4=CC(=O)CC[C@]4(C)[C@H]3CC[C@@]21C [EM-1007, 6-Methyl-4,6-pregnadien-17α-ol-3,20-dione 4′-Carbomethoxybutyrate]",,,"Androgenic Activity Shionogi, Basal ([1]; E^−6): −31; Androgenic Activity Shionogi, Basal ([1]; E^−7): 0; % Inhibition Estrogen Receptor (estrogen receptor; E^−6): 0%; % Inhibition Estrogen Receptor (estrogen receptor; E^−8): 0%"
CC1CCC2(CCC3C4CCc5ccccc5C4CCC32C)OC1=O (stereo not drawn) [EM-1025],0%,5%,"% Inhibition Estrogen Receptor E^−6 (estrogen receptor; Table 4′, E^−6): 4%; % Inhibition Estrogen Receptor E^−8 (estrogen receptor; Table 4′, E^−8): 1%"
COCCOc1cc2c(cc1F)C1CCC3(C)C(CCC34CCC(C)(C)C(=O)O4)C1CC2 (stereo not drawn) [EM-1393-CS],−10%,88%,
CC1(C)CCC2(CCC3C4CCc5cc(C(=O)OCc6ccccc6)ccc5C4CCC32C)OC1=O (stereo not drawn) [EM-1398],−10%,13%,
"COc1cc2c(cc1C(F)(F)F)C1CCC3(C)C(CCC34CCC(C)(C)C(=O)O4)C1CC2 [EM-1409, 3-Methoxy-2-trifluoromethyl-1,3,5(10)-estratrien-17(R)-spiro-2′-(5′,5′-dimethyl-6′-oxo)tetrahydropyran]",−23%,5%,
CC1(C)CCC2(CCC3C4CCc5cc(O)c(C#N)cc5C4CCC32C)OC1=O (stereo not drawn) [EM-01645],35%,−5%,
CC1(C)CCC2(CCC3C4CCc5cc(O)c(C(N)=O)cc5C4CCC32C)OC1=O (stereo not drawn) [EM-01660],−31%,−4%,
CN(C)C(=O)c1cc2c(cc1O)CCC1C2CCC2(C)C1CCC21CCC(C)(C)C(=O)O1 (stereo not drawn) [EM-01661-B],−13%,0%,
COC(=O)c1cc2c(cc1O)CCC1C2CCC2(C)C1CCC21CCC(C)(C)C(=O)O1 (stereo not drawn) [EM-01662],−27%,0%,
"CC12CCC3c4ccc(O)cc4CCC3C1CCC21CC=CC(=O)O1 [PB-132-140, 3-hydroxy-1,3,5(10)-estratrien-17(R)-spiro-2′-(4′,5′-dihydro-6′-oxo)pyran]",−18%,30%,
"CC1CC(=O)OC2(CCC3C4CCc5cc(O)ccc5C4CCC32C)C1 [PB-132-142, 3-Hydroxy-1,3,5(10)-estratrien-17(R)-spiro-2′-(4′-methyl-6′-oxo)tetrahydropyran]",−17%,25%,
"COC(=O)C1CCC2(CCC3C4CCc5cc(O)ccc5C4CCC32C)OC1=O [PB-132-146, 3-Hydroxy-1,3,5(10)-estratrien-17(R)-2′-(5′-methoxycarbonyl-6′-oxo)tetrahydropyran]",0%,29%,
"C=CCC1CCC2(CCC3C4CCc5cc(O)ccc5C4CCC32C)OC1=O [PB-132-152, 3-Hydroxy-1,3,5(10)-estratrien-17(R)-2′-(5′-allyl-6′-oxo)tetrahydropyran]",0%,39%,
